Target: T1, human V1a receptor (Homo sapiens, UniProt P37288)
T1 construct: expressed in transfected cells; host or cells: HEK293 cells, transiently transfected; cell membranes
Assay: human V1a receptor binding studies (3H-Vasopressin, SPA beads)
Conditions: membranes of HEK293 cells transiently transfected with human V1a receptor, Ki by Cheng-Prussoff from IC50, read-out: pKi hV1a (converted)
Procedure, shortened: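 Membranes from transiently transfected HEK293 cells expressing cloned human V1a receptor, on yttrium silicate SPA beads, competed against 4 nM 3H-vasopressin (added stock concentration) in Tris buffer with NaCl, KCl, CaCl2, MgCl2 for 1 h at room temperature. Nonspecific binding with cold vasopressin; IC50 by nonlinear fit, Ki via Cheng-Prusoff.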

T1 sequence (P37288 whole entry): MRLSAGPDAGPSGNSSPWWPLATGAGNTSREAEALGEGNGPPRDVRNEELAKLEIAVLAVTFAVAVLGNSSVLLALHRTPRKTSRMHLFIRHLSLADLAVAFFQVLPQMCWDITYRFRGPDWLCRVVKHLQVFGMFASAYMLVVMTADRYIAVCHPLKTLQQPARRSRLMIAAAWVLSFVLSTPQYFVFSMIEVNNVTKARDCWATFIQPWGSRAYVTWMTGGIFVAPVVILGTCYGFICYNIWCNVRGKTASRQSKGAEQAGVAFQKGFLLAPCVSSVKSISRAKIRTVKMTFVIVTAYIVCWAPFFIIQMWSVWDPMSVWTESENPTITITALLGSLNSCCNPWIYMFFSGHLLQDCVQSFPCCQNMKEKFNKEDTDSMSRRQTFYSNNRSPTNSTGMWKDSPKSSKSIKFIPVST

Row | Ki [nM] | SMILES
1 | 158 | O=C1N=C(N2CCC3(CC2)OCc2ccccc23)OC12CCCC2 [Example 112, 2-(3H-Spiro[isobenzofuran-1,4′-piperidine]-1′-yl)-1-oxa-3-azaspiro[4.4]non-2-en-4-one]
2 | 100 | O=C1N=C(N2CCC3(CC2)OCc2ccccc23)OC12CC=CC2 [Example 113, 2-(1′H,3H-Spiro[2-benzofuran-1,4′-piperidin]-1′-yl)-1-oxa-3-azaspiro[4.4]nona-2,7-dien-4-one]
3 | 12.6 | CC1=CCC2(C1)OC(N1CCC3(CC1)OCc1ccccc13)=NC2=O (centres unmarked) [Example 114, 7-Methyl-2-(1′H,3H-spiro[2-benzofuran-1,4′-piperidin]-1′-yl)-1-oxa-3-azaspiro[4.4]nona-2,7-dien-4-one]
4 | 10 | CC1=C(C)CC2(C1)OC(N1CCC3(CC1)OCc1ccccc13)=NC2=O [Example 115, 7,8-Dimethyl-2-(1′H,3H-spiro[2-benzofuran-1,4′-piperidin]-1′-yl)-1-oxa-3-azaspiro[4.4]nona-2,7-dien-4-one]
5 | 126 | CCOC(=O)C1=CCC2(C1)OC(N1CCC3(CC1)OCc1ccccc13)=NC2=O (centres unmarked) [Example 116, Ethyl 4-oxo-2-(1′H,3H-spiro[2-benzofuran-1,4′-piperidin]-1′-yl)-1-oxa-3-azaspiro[4.4]nona-2,7-diene-7-carboxylate]
6 | 1.26 | O=C1N=C(N2CCC3(CC2)OCc2ccccc23)OC12CC=C(C(F)(F)F)C2 (centres unmarked) [Example 117, 2-(1′H,3H-Spiro[2-benzofuran-1,4′-piperidin]-1′-yl)-7-(trifluoromethyl)-1-oxa-3-azaspiro[4.4]nona-2,7-dien-4-one]
7 | 316 | CC(C)(C)[Si](C)(C)OCC1=CCC2(C1)OC(N1CCC3(CC1)OCc1ccccc13)=NC2=O (centres unmarked) [Example 118, 7-({[tert-Butyl(dimethyl)silyl]oxy}methyl)-2-(1′H,3H-spiro[2-benzofuran-1,4′-piperidin]-1′-yl)-1-oxa-3-azaspiro[4.4]nona-2,7-dien-4-one]
8 | 1000 | O=C1N=C(N2CCC3(CC2)OCc2ccccc23)OC12CC=C(CO)C2 (centres unmarked) [Example 119, 7-(Hydroxymethyl)-2-(3H-spiro[isobenzofuran-1,4′-piperidine]-1′-yl)-1-oxa-3-azaspiro[4.4]nona-2,7-dien-4-one]
9 | 10 | O=C1N=C(N2CCC3(CC2)OCc2ccccc23)OC12CCCCC2 [Example 123, 2-(1′H,3H-Spiro[2-benzofuran-1,4′-piperidin]-1′-yl)-1-oxa-3-azaspiro[4.5]dec-2-en-4-one]
10 | 158 | O=C1OC2(CCN(C3=NC(=O)C4(CCCCC4)O3)CC2)c2ccccc21 [Example 124, 1′-(4-Oxo-1-oxa-3-azaspiro[4.5]dec-2-en-2-yl)-3H-spiro[2-benzofuran-1,4′-piperidin]-3-one]
11 | 200 | O=C1N=C(N2CCC3(CC2)OCc2ccccc23)OC12CCCOC2 (centres unmarked) [Example 125, 2-(1′H,3H-Spiro[2-benzofuran-1,4′-piperidin]-1′-yl)-1,7-dioxa-3-azaspiro[4.5]dec-2-en-4-one]
12 | 6.31 | O=C1N=C(N2CCC3(CC2)OCc2ccccc23)OC12CCC(F)(F)CC2 [Example 130, 8,8-Difluoro-2-(1′H,3H-spiro[2-benzofuran-1,4′-piperidin]-1′-yl)-1-oxa-3-azaspiro[4.5]dec-2-en-4-one]
13 | 50.1 | O=C1OC2(CCN(C3=NC(=O)C4(CCC(F)(F)CC4)O3)CC2)c2ccccc21 [Example 131, 1′-(8,8-Difluoro-4-oxo-1-oxa-3-azaspiro[4.5]dec-2-en-2-yl)-3H-spiro[2-benzofuran-1,4′-piperidin]-3-one]
14 | 15.8 | O=C1N=C(N2CCC3(CC2)OCc2ccccc23)OC12CCSCC2 [Example 132, 2-(1′H,3H-Spiro[2-benzofuran-1,4′-piperidin]-1′-yl)-1-oxa-8-thia-3-azaspiro[4.5]dec-2-en-4-one]
15 | 126 | O=C1N=C(N2CCC3(CC2)OCc2ccccc23)OC12CCS(=O)(=O)CC2 [Example 133, 2-(1′H,3H-Spiro[2-benzofuran-1,4′-piperidin]-1′-yl)-1-oxa-8-thia-3-azaspiro[4.5]dec-2-en-4-one 8,8-dioxide]
16 | 158 | CC(C)(C)OC(=O)N1CCC2(CC1)OC(N1CCC3(CC1)OCc1ccccc13)=NC2=O [Example 134, tert-Butyl 4-oxo-2-(1′H,3H-spiro[2-benzofuran-1,4′-piperidin]-1′-yl)-1-oxa-3,8-diazaspiro[4.5]dec-2-ene-8-carboxylate]
17 | 398 | O=C1N=C(N2CCC3(CC2)OCc2ccccc23)OC12CCN(Cc1ccccc1)CC2 [Example 135, 8-Benzyl-2-(1′H,3H-spiro[2-benzofuran-1,4′-piperidin]-1′-yl)-1-oxa-3,8-diazaspiro[4.5]dec-2-en-4-one]
18 | 316 | O=C1N=C(N2CCC3(CC2)OCc2ccccc23)OC12CCN(CC(F)F)CC2 [Example 136, 8-(2,2-Difluoroethyl)-2-(1′H,3H-spiro[2-benzofuran-1,4′-piperidin]-1′-yl)-1-oxa-3,8-diazaspiro[4.5]dec-2-en-4-one]
19 | 1.58 | CC(C)(C)OC(=O)N1Cc2ccccc2CC2(C1)OC(N1CCC3(CC1)OCc1ccccc13)=NC2=O (centres unmarked) [Example 137, tert-Butyl 4′-oxo-2′-(1′H,3H-spiro[2-benzofuran-1,4′-piperidin]-1′-yl)-1,5-dihydro-4′H-spiro[2-benzazepine-4,5′-[1,3]oxazole]-2(3H)-carboxylate]
20 | 6.31 | O=C1N=C(N2CCC3(CC2)OCc2ccccc23)OC12CNCc1ccccc1C2 (centres unmarked) [Example 138, 2′-(1′H,3H-Spiro[2-benzofuran-1,4′-piperidin]-1′-yl)-1,2,3,5-tetrahydro-4′H-spiro[2-benzazepine-4,5′-[1,3]oxazol]-4′-one]
21 | 1.26 | CN1Cc2ccccc2CC2(C1)OC(N1CCC3(CC1)OCc1ccccc13)=NC2=O (centres unmarked) [Example 139, 2-Methyl-2′-(1′H,3H-spiro[2-benzofuran-1,4′-piperidin]-1′-yl)-1,2,3,5-tetrahydro-4′H-spiro[2-benzazepine-4,5′-[1,3]oxazol]-4′-one]
22 | 0.631 | O=C1N=C(N2CCC3(CC2)OCc2ccccc23)OC12CC1CCCCCC1C2 (centres unmarked) [Example 140, 2′-(1′H,3H-Spiro[2-benzofuran-1,4′-piperidin]-1′-yl)-3,3a,4,5,6,7,8,8a-octahydro-1H,4′H-spiro[azulene-2,5′-[1,3]oxazol]-4′-one]
23 | 0.501 | O=C1N=C(N2CCC3(CC2)OCc2ccccc23)O[C@]12C[C@H]1CCCC[C@H]1C2 [Example 141, 2′-(1′H,3H-Spiro[2-benzofuran-1,4′-piperidin]-1′-yl)-1,3,3a,4,5,6,7,7a-octahydro-4′H-spiro[indene-2,5′-[1,3]oxazol]-4′-one]
24 | 158 | O=C1C=C2CC3(CC2C1)OC(N1CCC2(CC1)OCc1ccccc12)=NC3=O (centres unmarked) [Example 142, 2-(1′H,3H-Spiro[2-benzofuran-1,4′-piperidin]-1′-yl)-3a′,4′-dihydro-1′H,4H-spiro[1,3-oxazole-5,2′-pentalene]-4,5′(3′H)-dione]
25 | 100 | O=C1C[C@@H]2CC3(C[C@@H]2C1)OC(N1CCC2(CC1)OCc1ccccc12)=NC3=O (some centres unmarked) [Example 143, 2-(1′H,3H-Spiro[2-benzofuran-1,4′-piperidin]-1′-yl)-3a′,4′,6′,6a′-tetrahydro-1′H,4H-spiro[1,3-oxazole-5,2′-pentalene]-4,5′(3′H)-dione]
26 | 79.4 | O=C1N=C(N2CCC3(CC2)OCc2ccccc23)OC12C[C@H]1COC[C@H]1C2 (some centres unmarked) [Example 144, 2′-(1′H,3H-Spiro[2-benzofuran-1,4′-piperidin]-1′-yl)-3a,4,6,6a-tetrahydro-1H,3H,4′H-spiro[cyclopenta[c]furan-5,5′-[1,3]oxazol]-4′-one]
27 | 3.98 | O=C1N=C(N2CCC3(CC2)OCc2ccccc23)O[C@]12C[C@H]1CC(F)(F)C[C@H]1C2 [Example 146, 5′,5′-Difluoro-2-(1′H,3H-spiro[2-benzofuran-1,4′-piperidin]-1′-yl)-3′,3a′,4′,5′,6′,6a′-hexahydro-1′H,4H-spiro[1,3-oxazole-5,2′-pentalen]-4-one]
28 | 158 | O=C1N=C(N2CCC3(CC2)OCc2ccccc23)OC12C[C@@H]1OS(=O)O[C@@H]1C2 (some centres unmarked) [Example 147, 2′-(1′H,3H-Spiro[2-benzofuran-1,4′-piperidin]-1′-yl)-3a,4,6,6a-tetrahydro-4′H-spiro[cyclopenta[d][1,3,2]dioxathiole-5,5′-[1,3]oxazol]-4′-one 2-oxide]
29 | 0.251 | O=C1N=C(N2CCC3(CC2)c2ccccc2CS3(=O)=O)OC12Cc1ccccc1C2 [Example 150, 2′-(2,2-Dioxido-1′H,3H-spiro[2-benzothiophene-1,4′-piperidin]-1′-yl)-1,3-dihydro-4′H-spiro[indene-2,5′-[1,3]oxazol]-4′-one]
